Molecules are shown by their SMILES. Calls of active or inactive are those of the source. The rule behind the calls is not given here. Where only a bound is given, the exact number is not on record here.

The subject of the assay is HeLa, chromatin condensation phenotype imaging. Nature of the assay: condensed chromatin phenotype in HeLa cells – imaging, IC50, dose response (AID 1117350).
With `COc1ccc(-c2ccc3cc(C(=O)O)ccc3c2)cc1C12CC3CC(CC(C3)C1)C2`, the IC50 was > 10 µM (inactive).

On to `Cc1ccc(S(=O)(=O)NC(=O)NN2CC3CCCC3C2)cc1` (stereo not given), for which the IC50 is > 10 µM (inactive).

In the case of `CC(C)n1c(/C=C/[C@@H](O)C[C@@H](O)CC(=O)O)c(-c2ccc(F)cc2)c2ccccc21`, the IC50 is > 10 µM (inactive). As for `CN(C)CCC=C1c2ccccc2CCc2ccccc21`, the figure is > 10 µM (inactive); as for `Fc1ccc(C(OCCN2CCN(CCCc3ccccc3)CC2)c2ccc(F)cc2)cc1`, > 10 µM (inactive); as for `CCCCC1C(=O)N(c2ccccc2)N(c2ccc(O)cc2)C1=O` (stereo not given), > 10 µM (inactive).

With `S=c1nc[nH]c2nc[nH]c12`, the IC50 was > 10 µM (inactive). As for `CCCCC(CC)CN=C(N)NC(N)=NCCCCCCN=C(N)NC(N)=NCC(CC)CCCC` (stereo not given), the IC50 is > 10 µM (inactive). As for `O=C(CCBr)N1CCN(C(=O)CCBr)CC1`, the figure is > 10 µM (inactive); as for `C[C@@]12C(=O)OC(=O)[C@]1(C)C1CCC2O1`, 8.5 µM (inactive).

With `O[C@@H](CNC[C@H](O)[C@H]1CCc2cc(F)ccc2O1)[C@@H]1CCc2cc(F)ccc2O1`, the IC50 is > 10 µM (inactive). As for `Cc1ccccc1C(OCCN(C)C)c1ccccc1` (stereo not given), the figure is > 10 µM (inactive). On to `O=C(Nc1ccc([N+](=O)[O-])cc1Cl)c1cc(Cl)ccc1O`, for which the IC50 is > 10 µM (inactive).

Turning to `COC(=O)Nc1nc2ccc(S(=O)c3ccccc3)cc2[nH]1` (stereo not given), the IC50 is 0.241 µM. As for `Cc1ccc(Nc2nccc(N(C)c3ccc4c(C)n(C)nc4c3)n2)cc1S(N)(=O)=O`, the figure is > 10 µM (inactive); as for `Cc1cc(N)c2ccccc2[n+]1CCCCCCCCCC[n+]1c(C)cc(N)c2ccccc21`, > 10 µM (inactive); as for `C=CC(=O)Nc1cc2c(Nc3ccc(F)c(Cl)c3)ncnc2cc1OCCCN1CCOCC1`, 4.29 µM.

As to `CC[C@H]1CN2CCc3cc(OC)c(OC)cc3[C@@H]2C[C@@H]1C[C@H]1NCCc2cc(OC)c(OC)cc21`, the IC50 was 0.948 µM. As for `O=Cc1ccc(O)c(O)c1O`, the figure is > 10 µM (inactive); as for `Cc1c(C)c2c(c(C)c1O)CCC(C)(COc1ccc(CC3SC(=O)NC3=O)cc1)O2` (stereo not given), > 10 µM (inactive). In the case of `CC(CC1c2ccccc2CCc2ccccc21)CN(C)C` (stereo not given) it was > 10 µM (inactive). As for `Oc1c(I)cc(Cl)c2cccnc12`, the figure is > 10 µM (inactive); as for `Cc1ccc2c(c1)c1c3n2CCNC3CCC1` (stereo not given), > 10 µM (inactive); as for `C[C@@H](O[C@H]1OCCN(Cc2n[nH]c(=O)[nH]2)[C@H]1c1ccc(F)cc1)c1cc(C(F)(F)F)cc(C(F)(F)F)c1`, > 10 µM (inactive). In the case of `Cc1nc(N)nc(N)c1-c1ccc(Cl)c(Cl)c1`, the IC50 was > 10 µM (inactive). With `Cc1cc2c(C(C)C)c(O)c(O)c(C=O)c2c(O)c1-c1c(C)cc2c(C(C)C)c(O)c(O)c(C=O)c2c1O`, the IC50 is > 10 µM (inactive). For the molecule `C[C@@H]1C[C@@H]([C@H](O)CC2CC(=O)NC(=O)C2)C(=O)[C@@H](C)C1`, the IC50 was > 10 µM (inactive). As for `Cc1ccccc1C(=O)Nc1ccc(C(=O)N2CCCC(N(C)C)c3ccccc32)cc1` (stereo not given), the figure is 3.41 µM; as for `Cn1cnc([N+](=O)[O-])c1Sc1ncnc2nc[nH]c12`, > 10 µM (inactive). As for `CCc1oc2ccccc2c1C(=O)c1cc(I)c(O)c(I)c1`, the IC50 was > 10 µM (inactive).

What is called IC50 is the concentration that gives 50% inhibition.

The record behind these values is PubChem BioAssay AID1117350 (Cheminformatics & Chemogenomics Research Group (CCRG), …, 2015).
